Reference: patent US20140005163A1 (NOVARTIS AG, priority 2010, published 2014)
Converted amounts (≈) assume the structure as drawn. Like-named read-outs stand apart in the source and are kept apart here.

Assays:
Solubility at pH 6.8 = format: physicochemical
Summary of the method: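 Following the procedure of Zhou et al. (2007), compound solubility was determined at pH 6.8.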

[1] = test system: PKB Ser473 phosphorylation in Rat1-myr-HA-p110 delta cells; test: Reverse protein array assay, PKB Ser473 phosphorylation in Rat1-myr-p110 delta cells; format: cell-based; details: read-out: p-PKB IC50
Summary of the method: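 Rat1 cells expressing myristoylated HA-tagged p110 alpha, beta or delta were plated for at least 20 h, then exposed to 8-step serial compound dilutions (0.2% DMSO final) for 30 min at 37 °C. Lysates were spotted at four dilutions on protein microarrays, and relative fluorescence intensity of phospho-Ser473 PKB was calculated.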

mTOR = target: T1, mTOR (Homo sapiens, UniProt P42345); test: Biochemical assay for m-TOR by TR-FRET; details: 8 μM ATP, 400 nM GFP-4EBP1, 0.5 nM mTOR
T1 construct: purchased Invitrogen Corporation (Carlsbad/CA, USA) PV4753
T1 sequence (P42345 1360-2549 limits assumed): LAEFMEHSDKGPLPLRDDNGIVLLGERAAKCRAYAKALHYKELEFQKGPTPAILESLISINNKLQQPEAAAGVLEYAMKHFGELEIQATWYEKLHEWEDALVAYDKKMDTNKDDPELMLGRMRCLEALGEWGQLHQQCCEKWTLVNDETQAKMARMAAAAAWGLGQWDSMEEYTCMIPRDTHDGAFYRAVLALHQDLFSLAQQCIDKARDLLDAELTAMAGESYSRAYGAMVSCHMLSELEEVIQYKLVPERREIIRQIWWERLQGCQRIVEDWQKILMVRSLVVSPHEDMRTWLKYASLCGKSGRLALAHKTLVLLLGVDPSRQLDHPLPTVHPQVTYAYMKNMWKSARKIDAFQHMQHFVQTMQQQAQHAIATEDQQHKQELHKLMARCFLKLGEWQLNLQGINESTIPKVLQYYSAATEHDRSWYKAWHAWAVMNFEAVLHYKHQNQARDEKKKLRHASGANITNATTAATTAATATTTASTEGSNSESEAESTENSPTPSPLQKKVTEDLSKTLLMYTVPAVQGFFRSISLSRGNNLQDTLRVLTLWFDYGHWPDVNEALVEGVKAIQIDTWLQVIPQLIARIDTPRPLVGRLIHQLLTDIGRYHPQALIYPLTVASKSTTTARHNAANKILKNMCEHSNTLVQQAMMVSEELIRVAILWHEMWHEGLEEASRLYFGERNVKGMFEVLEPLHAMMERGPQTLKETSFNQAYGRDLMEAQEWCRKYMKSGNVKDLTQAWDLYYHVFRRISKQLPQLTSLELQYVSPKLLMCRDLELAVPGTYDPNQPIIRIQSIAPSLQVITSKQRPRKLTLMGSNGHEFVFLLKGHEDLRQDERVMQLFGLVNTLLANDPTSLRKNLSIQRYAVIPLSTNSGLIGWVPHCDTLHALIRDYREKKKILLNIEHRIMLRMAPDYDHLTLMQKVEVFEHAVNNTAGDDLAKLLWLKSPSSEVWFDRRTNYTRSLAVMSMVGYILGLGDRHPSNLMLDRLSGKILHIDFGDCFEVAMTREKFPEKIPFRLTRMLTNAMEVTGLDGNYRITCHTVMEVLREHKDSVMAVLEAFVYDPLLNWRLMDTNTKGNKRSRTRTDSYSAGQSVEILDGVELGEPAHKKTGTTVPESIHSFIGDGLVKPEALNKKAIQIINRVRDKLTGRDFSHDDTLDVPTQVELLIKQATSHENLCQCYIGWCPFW
Summary of the method: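 TR-FRET detection of pThr46 on GFP-4EBP1 (400 nM final) using Tb3+-labelled antibody (0.5 nM), added with EDTA to stop reactions. Reactions ran at rt with 0.5 nM mTOR and 8 μM ATP (final) in HEPES pH 7.5 buffer containing 10 mM MnCl2.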

[2] = pH 6.8, aqueous buffer, thermodynamic from solid, read-out: solubility

Row | SMILES | solubility (Solubility at pH 6.8; pH 6.8) [µg/mL] | IC50 [1] [nM] | IC50 (mTOR) [nM] | solubility (Solubility at pH 6.8; [2]) [µg/mL]
1 | CNc1ncc(-c2ccc3ncc4c(c3c2)n(-c2cn(C)nc2C)c(=O)n4C)cc1F [Example 141.2, 1-(1,3-Dimethyl-1H-pyrazol-4-yl)-8-(5-fluoro-6-methylamino-pyridin-3-yl)-3-methyl-1,3-dihydro-imidazo[4,5-c]quinolin-2-one] | 2 (≈ 4.79 µM) | 21 | 7 | –
2 | Cc1nn(C)c(C)c1-n1c(=O)n(C)c2cnc3ccc(-c4cnc(N)c(F)c4)cc3c21 [Example 142.1, 8-(6-Amino-5-fluoro-pyridin-3-yl)-3-methyl-1-(1,3,5-trimethyl-1H-pyrazol-4-yl)-1,3-dihydro-imidazo[4,5-c]quinolin-2-one] | – | 306 | 481 | > 417
3 | CNc1ncc(-c2ccc3ncc4c(c3c2)n(-c2c(C)nn(C)c2C)c(=O)n4C)cc1Cl [Example 146.4, 8-(5-Chloro-6-methylamino-pyridin-3-yl)-3-methyl-1-(1,3,5-trimethyl-1H-pyrazol-4-yl)-1,3-dihydro-imidazo[4,5-c]quinolin-2-one] | – | 133 | 309 | 75 (≈ 167 µM)
4 | CNc1ncc(-c2ccc3ncc4c(c3c2)n(-c2cc(C)nn2C)c(=O)n4C)cc1Cl [Example 146.5, 8-(5-Chloro-6-methylamino-pyridin-3-yl)-1-(2,5-dimethyl-2H-pyrazol-3-yl)-3-methyl-1,3-dihydro-imidazo[4,5-c]quinolin-2-one] | – | 59 | 48 | 3 (≈ 6.91 µM)
5 | Cc1noc(C)c1-n1c(=O)n(C)c2cnc3ccc(-c4cnc(N)c(Cl)c4)cc3c21 [Example 148.4, 8-(6-Amino-5-chloro-pyridin-3-yl)-1-(3,5-dimethyl-isoxazol-4-yl)-3-methyl-1,3-dihydro-imidazo[4,5-c]quinolin-2-one] | – | 370 | 678 | 3 (≈ 7.13 µM)
6 | CNc1cc(-c2ccc3ncc4c(c3c2)n(-c2cn(C)nc2C)c(=O)n4C)cnc1F [Example 150.2, 1-(1,3-Dimethyl-1H-pyrazol-4-yl)-8-(6-fluoro-5-methylamino-pyridin-3-yl)-3-methyl-1,3-dihydro-imidazo[4,5-c]quinolin-2-one] | – | 15 | 8 | 4 (≈ 9.58 µM)
7 | CCNc1cc(-c2ccc3ncc4c(c3c2)n(-c2c(C)nn(C)c2C)c(=O)n4C)cnc1F [Example 154.1, 8-(5-Ethylamino-6-fluoro-pyridin-3-yl)-3-methyl-1-(1,3,5-trimethyl-1H-pyrazol-4-yl)-1,3-dihydro-imidazo[4,5-c]quinolin-2-one] | 2 (≈ 4.49 µM) | 141 | 619 | –
8 | Cc1ncc(-c2ccc3ncc4c(c3c2)n(-c2cn(C)nc2C)c(=O)n4C)cc1N(C)C [Example 164, 8-(5-Dimethylamino-6-methyl-pyridin-3-yl)-1-(1,3-dimethyl-1H-pyrazol-4-yl)-3-methyl-1,3-dihydro-imidazo[4,5-c]quinolin-2-one] | – | 7 | < 3 | 400 (≈ 936 µM)
9 | CCNc1ncc(-c2ccc3ncc4c(c3c2)n(-c2cn(C)nc2C)c(=O)n4C)cc1COCC [Example 167, 1-(1,3-Dimethyl-1H-pyrazol-4-yl)-8-(5-ethoxymethyl-6-ethylamino-pyridin-3-yl)-3-methyl-1,3-dihydro-imidazo[4,5-c]quinolin-2-one] | – | 91 | 58 | 4 (≈ 8.48 µM)
10 | CCn1cc(-n2c(=O)n(C)c3cnc4ccc(-c5cnc(N)c(COC)c5)cc4c32)c(C)n1 [Example 168.2, 8-(6-Amino-5-methoxymethyl-pyridin-3-yl)-1-(1-ethyl-3-methyl-1H-pyrazol-4-yl)-3-methyl-1,3-dihydro-imidazo[4,5-c]quinolin-2-one] | – | 19 | 41 | 24 (≈ 54.1 µM)
11 | Cc1ncc(-c2ccc3ncc4c(c3c2)n(-c2cn(C)nc2C)c(=O)n4C)cc1O [Example 185.1, 1-(1,3-Dimethyl-1H-pyrazol-4-yl)-8-(5-hydroxy-6-methyl-pyridin-3-yl)-3-methyl-1,3-dihydro-imidazo[4,5-c]quinolin-2-one] | – | 326 | < 3 | 17 (≈ 42.5 µM)

The remaining lines, values ahead:

Row | solubility (Solubility at pH 6.8; pH 6.8) [µg/mL] | IC50 [1] [nM] | IC50 (mTOR) [nM] | solubility (Solubility at pH 6.8; [2]) [µg/mL] | SMILES
12 | – | 5 | 17 | 15 (≈ 31.3 µM) | Cc1ncc(-c2ccc3ncc4c(c3c2)n(-c2cn(C)nc2C)c(=O)n4C)cc1OC(CF)CF [Example 189, 1-(1,3-Dimethyl-1H-pyrazol-4-yl)-8-[5-(2-fluoro-1-fluoromethyl-ethoxy)-6-methyl-pyridin-3-yl]-3-methyl-1,3-dihydro-imidazo[4,5-c]quinolin-2-one]
13 | – | 54 | 37 | 5 (≈ 10.9 µM) | Cc1nn(C)cc1-n1c(=O)n(C)c2cnc3ccc(-c4cnc(CO)c(OC(C)C)c4)cc3c21 [Example 190, 1-(1,3-Dimethyl-1H-pyrazol-4-yl)-8-(6-hydroxymethyl-5-isopropoxy-pyridin-3-yl)-3-methyl-1,3-dihydro-imidazo[4,5-c]quinolin-2-one]
14 | – | 56 | 25 | > 473 | COCc1ncc(-c2ccc3ncc4c(c3c2)n(-c2cn(C)nc2C)c(=O)n4C)cc1OC(C)C [Example 191.1, 1-(1,3-Dimethyl-1H-pyrazol-4-yl)-8-(5-isopropoxy-6-methoxymethyl-pyridin-3-yl)-3-methyl-1,3-dihydro-imidazo[4,5-c]quinolin-2-one]
15 | – | 101 | 21 | 150 (≈ 348 µM) | COc1cc(-c2ccc3ncc4c(c3c2)n(-c2cn(C)nc2C)c(=O)n4C)cnc1CO [Example 193, 1-(1,3-Dimethyl-1H-pyrazol-4-yl)-8-(6-hydroxymethyl-5-methoxy-pyridin-3-yl)-3-methyl-1,3-dihydro-imidazo[4,5-c]quinolin-2-one]
16 | – | 154 | 48 | 439 (≈ 988 µM) | COCc1ncc(-c2ccc3ncc4c(c3c2)n(-c2cn(C)nc2C)c(=O)n4C)cc1OC [Example 195.1, 1-(1,3-Dimethyl-1H-pyrazol-4-yl)-8-(5-methoxy-6-methoxymethyl-pyridin-3-yl)-3-methyl-1,3-dihydro-imidazo[4,5-c]quinolin-2-one]
17 | – | 343 | 87 | > 473 | COCc1ncc(-c2ccc3ncc4c(c3c2)n(-c2cn(C(C)C)nc2C)c(=O)n4C)cc1OC [Example 195.2, 1-(1-Isopropyl-3-methyl-1H-pyrazol-4-yl)-8-(5-methoxy-6-methoxymethyl-pyridin-3-yl)-3-methyl-1,3-dihydro-imidazo[4,5-c]quinolin-2-one]
18 | – | 255 | 76 | > 459 | CCn1cc(-n2c(=O)n(C)c3cnc4ccc(-c5cnc(COC)c(OC)c5)cc4c32)c(C)n1 [Example 195.3, 1-(1-Ethyl-3-methyl-1H-pyrazol-4-yl)-8-(5-methoxy-6-methoxymethyl-pyridin-3-yl)-3-methyl-1,3-dihydro-imidazo[4,5-c]quinolin-2-one]
19 | – | 29 | 12 | 8 (≈ 17.1 µM) | [2H]C([2H])([2H])OCc1ncc(-c2ccc3ncc4c(c3c2)n(-c2cn(C)nc2Cl)c(=O)n4C)cc1OC [Example 199, 1-(3-Chloro-1-methyl-1H-pyrazol-4-yl)-8-(5-methoxy-6-trideuteromethoxymethyl-pyridin-3-yl)-3-methyl-1,3-dihydro-imidazo[4,5-c]quinolin-2-one]
20 | – | 28 | 29 | 16 (≈ 36 µM) | COCc1cc(-c2ccc3ncc4c(c3c2)n(-c2cn(C)nc2C)c(=O)n4C)cnc1OC [Example 202, 1-(1,3-Dimethyl-1H-pyrazol-4-yl)-8-(6-methoxy-5-methoxymethyl-pyridin-3-yl)-3-methyl-1,3-dihydro-imidazo[4,5-c]quinolin-2-one]
21 | 2 (≈ 4.53 µM) | 66 | 21 | – | Cc1nn(C)cc1-n1c(=O)n(C)c2cnc3ccc(-c4cnc5c(c4)OCCN5C)cc3c21 [Example 209, 1-(1,3-Dimethyl-1H-pyrazol-4-yl)-3-methyl-8-(4-methyl-3,4-dihydro-2H-pyrido[3,2-b][1,4]oxazin-7-yl)-1,3-dihydro-imidazo[4,5-c]quinolin-2-one]
22 | – | 178 | 9 | > 428 | Cc1nn(C)cc1-n1c(=O)n(C)c2cnc3ccc(-c4cncc(C(C)(C)O)c4)cc3c21 [Example 215.2, 1-(1,3-Dimethyl-1H-pyrazol-4-yl)-8-[5-(1-hydroxy-1-methyl-ethyl)-pyridin-3-yl]-3-methyl-1,3-dihydro-imidazo[4,5-c]quinolin-2-one]
23 | – | 53 | 41 | 14 (≈ 30.8 µM) | Cc1nn(C)cc1-n1c(=O)n(C)c2cnc3ccc(-c4cncc(C5(O)CCCC5)c4)cc3c21 [Example 218, 1-(1,3-Dimethyl-1H-pyrazol-4-yl)-8-[5-(1-hydroxy-cyclopentyl)-pyridin-3-yl]-3-methyl-1,3-dihydro-imidazo[4,5-c]quinolin-2-one]
24 | 2 (≈ 4.57 µM) | 23 | 27 | – | Cc1nn(C)cc1-n1c(=O)n(C)c2cnc3ccc(-c4cncc(C(C)(C)C#N)c4)cc3c21 [Example 220.1, 2-{5-[1-(1,3-Dimethyl-1H-pyrazol-4-yl)-3-methyl-2-oxo-2,3-dihydro-1H-imidazo[4,5-c]quinolin-8-yl]-pyridin-3-yl}-2-methyl-propionitrile]
